Results taken from article PMC11605156, “Triterpenoids from Ganoderma lucidum inhibit cytochrome P450 enzymes interfering with the metabolic process of specific clinical drugs” (Frontiers in Pharmacology, 2024).

Legend:
[1] = target: T1, CYP2B6 (Homo sapiens, UniProt P20813); assay: CYP2B6 inhibition, probe/drug metabolism in human liver microsomes
T1 sequence (P20813 1-491): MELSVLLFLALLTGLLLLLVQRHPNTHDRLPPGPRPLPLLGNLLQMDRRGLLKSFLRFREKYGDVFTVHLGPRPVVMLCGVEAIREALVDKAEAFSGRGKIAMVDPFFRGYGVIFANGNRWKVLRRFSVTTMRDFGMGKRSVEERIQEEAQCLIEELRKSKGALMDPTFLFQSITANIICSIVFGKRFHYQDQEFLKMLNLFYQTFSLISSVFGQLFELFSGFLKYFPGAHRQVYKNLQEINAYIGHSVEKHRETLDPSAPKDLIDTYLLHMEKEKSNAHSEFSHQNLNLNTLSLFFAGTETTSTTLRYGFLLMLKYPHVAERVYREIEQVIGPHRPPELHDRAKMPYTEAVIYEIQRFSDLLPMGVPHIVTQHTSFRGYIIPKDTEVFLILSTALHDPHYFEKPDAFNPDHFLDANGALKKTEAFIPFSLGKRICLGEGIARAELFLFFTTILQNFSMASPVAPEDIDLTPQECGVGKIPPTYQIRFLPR
Method: (§1) The total volume of the in vitro metabolic incubation system is 200 μL. The probe substrate concentration in the system is shown in Supplementary Table S1. […] The reaction sample was preheated in a constant temperature mixer at 37°C. Then NADP^+ was added to the system to initiate the reaction. The reaction time is 30 min, and 100 μL acetonitrile will be added on time to quickly terminate the reaction, followed by centrifugation at 4°C and 20,000 g for 20 min. The supernatant was analyzed using liquid chromatography tandem mass spectrometry (LC-MS/MS), and the activity of CYP enzymes was evaluated by the generation of probe metabolites. The mass spectrometry information of probe substrates is shown in Supplementary Table S3.
(§2) The isolated triterpenoids (1–66) were used to establish a compounds library. The inhibitory effects of 66 triterpenoids from G. lucidum on seven subtypes of CYP enzymes (CYP1A2, 2A6, 2D6, 2B6, 2C9, 2C19, 3A4) were evaluated followed the above-mentioned experimental procedures.
(§3) For 16 clinical drugs metabolized by CYP enzymes, potential DDI studies were conducted on triterpenoids (6, 25) of G. lucidum, and IC50 values were measured.
(§4) Clinical drugs: Phenacetin, melatonin, clozapine and riluzole are metabolized by CYP1A2. Bupropion, artemisinin, efavirenz and sertraline are metabolized by CYP2B6. Diclofenac, valsartan, glimepiride and glibenclamide are metabolized by CYP2C9. Midazolam, imatinib, simvastatin and diltiazem are metabolized by CYP3A4.
(§5) Table S1. The information of probes for CYPs activity assay
(§6) Table S2. Information of clinical drugs

[2] = target: T2, CYP2A6 (Homo sapiens, UniProt P11509); assay: CYP2A6 inhibition, coumarin probe in human liver microsomes; conditions: human, human liver microsomes, pH 7.4, probe coumarin 2 μM, Residual activity (%) CYP2A6, HLM 0.5 mg/mL
T2 sequence (P11509 1-494): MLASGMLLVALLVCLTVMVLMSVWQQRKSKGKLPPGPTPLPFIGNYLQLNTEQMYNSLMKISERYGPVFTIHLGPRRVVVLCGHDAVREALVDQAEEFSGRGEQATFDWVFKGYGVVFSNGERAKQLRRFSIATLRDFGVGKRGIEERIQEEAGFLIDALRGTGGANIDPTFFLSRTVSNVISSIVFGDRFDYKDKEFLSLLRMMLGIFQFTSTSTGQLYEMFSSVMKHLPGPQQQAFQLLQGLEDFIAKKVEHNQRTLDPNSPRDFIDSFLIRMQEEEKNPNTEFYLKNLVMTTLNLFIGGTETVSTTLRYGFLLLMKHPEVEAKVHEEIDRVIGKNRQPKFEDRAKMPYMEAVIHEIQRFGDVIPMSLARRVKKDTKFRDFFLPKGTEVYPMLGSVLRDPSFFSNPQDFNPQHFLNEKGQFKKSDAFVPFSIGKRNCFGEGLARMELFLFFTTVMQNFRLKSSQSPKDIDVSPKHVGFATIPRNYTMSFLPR
Method: as §1, §2, §5

[3] = target: CYP3A4 (Homo sapiens, UniProt P08684); assay: CYP3A4 inhibition, probe/drug metabolism in human liver microsomes
Method: as §1, §2, §3, §4, §5, §6

[4] = target: CYP2C19 (Homo sapiens, UniProt P33261); assay: CYP2C19 inhibition, S-mephenytoin probe in human liver microsomes
Method: as §1, §2, §5

[5] = test system: CYP3A4, CYP2B6, CYP2C9; assay: in vitro; type: in vitro ADME; conditions: human
Method: Bupropion, artemisinin, efavirenz and sertraline are metabolized by CYP2B6. Diclofenac, valsartan, glimepiride and glibenclamide are metabolized by CYP2C9. Midazolam, imatinib, simvastatin and diltiazem are metabolized by CYP3A4.
as §6
CYP subtype Drugs Metabolite Concentration Incubation time
CYP1A2 Melatonin 6-hydroxyl-melatonin 5 μM 30 min
Clozaril Demethyl-clozaril 10 μM 20 min
Riluzole Hydroxy-riluzole 5 μM 60 min
Phenacetin Deacetyl-phenacetin 40 μM 30 min
CYP2B6 Bupropion 4'-hydroxyl-bupropion 75 μM 30 min
Artemisinin Dihydroartemisinin 10 μM 30 min
Sertraline Demethyl-sertraline 5 μM 30 min
Efavirenz 8-hydroxyl-efavirenz 20 μM 30 min
CYP2C9 Diclofenac 4'-hydroxyl-diclofenac 4 μM 30 min
Valsartan 4-hydroxyl-valsartan 30 μM 30 min
Glimepiride Hydroxyl-glimepiride 50 μM 30 min
Glibenclamide Hydroxyl-glibenclamide 50 μM 30 min
CYP3A4 Midazolam 1'-hydroxyl-midazolam 5 μM 30 min
Simvastatin 6'-β-hydroxyl-simvastatin 10 μM 30 min
Diltiazem Demethyl-diltiazem 10 μM 30 min
Imatinib Demethyl-imatinib 5 μM 30 min

Chain of CYP3A4 (P08684 whole entry): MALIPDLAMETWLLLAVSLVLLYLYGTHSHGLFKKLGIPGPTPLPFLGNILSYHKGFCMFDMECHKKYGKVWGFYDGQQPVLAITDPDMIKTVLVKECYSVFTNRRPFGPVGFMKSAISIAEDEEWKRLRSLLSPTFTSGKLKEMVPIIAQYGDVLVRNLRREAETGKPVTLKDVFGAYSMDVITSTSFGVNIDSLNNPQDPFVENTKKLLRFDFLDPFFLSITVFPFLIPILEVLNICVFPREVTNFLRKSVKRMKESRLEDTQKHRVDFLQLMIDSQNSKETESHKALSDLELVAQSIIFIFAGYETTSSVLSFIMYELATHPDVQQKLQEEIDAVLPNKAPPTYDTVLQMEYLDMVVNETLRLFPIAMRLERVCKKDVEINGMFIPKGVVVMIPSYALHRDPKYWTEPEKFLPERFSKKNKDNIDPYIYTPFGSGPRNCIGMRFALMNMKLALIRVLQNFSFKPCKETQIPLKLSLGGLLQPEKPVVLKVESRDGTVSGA
Chain of CYP2C19 (P33261 whole entry): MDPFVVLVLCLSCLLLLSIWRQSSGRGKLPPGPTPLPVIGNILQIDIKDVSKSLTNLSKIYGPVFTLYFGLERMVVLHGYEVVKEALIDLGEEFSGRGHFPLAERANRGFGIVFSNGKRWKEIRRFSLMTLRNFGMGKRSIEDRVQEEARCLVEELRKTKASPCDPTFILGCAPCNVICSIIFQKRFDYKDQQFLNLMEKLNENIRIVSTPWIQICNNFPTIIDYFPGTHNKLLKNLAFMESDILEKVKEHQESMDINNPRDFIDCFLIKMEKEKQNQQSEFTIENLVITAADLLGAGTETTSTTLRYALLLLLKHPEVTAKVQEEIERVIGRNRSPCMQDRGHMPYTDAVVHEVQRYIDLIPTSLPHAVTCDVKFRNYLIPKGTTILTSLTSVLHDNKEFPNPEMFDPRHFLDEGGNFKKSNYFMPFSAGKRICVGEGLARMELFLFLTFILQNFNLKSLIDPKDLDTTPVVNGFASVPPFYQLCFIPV

CC(CCC(O)C(C)(O)CO)C1CCC2(C)C3=C(C(=O)CC12C)C1(C)CCC(=O)C(C)(C)C1CC3 (centres unmarked) [Compound 25, ganodrol C]
IC50 ([1]; IC50 against CYP 2B6, substrate bupropion 75 μM, HLM): 25.3 ± 3.7 µM | IC50 ([1]; IC50 against metabolism of artemisinin mediated by CYP2B6, substrate artemisinin 10 μM, 30 min): 21.5 ± 3.44 µM | IC50 ([1]; IC50 against metabolism of efavirenz mediated by CYP2B6, substrate efavirenz 20 μM, 30 min): 24.3 ± 3.05 µM | IC50 ([1]; IC50 against metabolism of sertraline mediated by CYP2B6, substrate sertraline 5 μM, 30 min): 25.1 ± 2.86 µM | activity at 30 min ([1]; human, human liver microsomes, pH 7.4, probe bupropion 75 μM, Residual activity (%) CYP2B6, HLM 0.5 mg/mL, bupropion 75 μM, 30 min): 56.8 ± 2.04% | activity at 30 min [2]: 70.1 ± 2.15% | IC50 ([3]; IC50 against CYP 3A4, substrate midazolam 5 μM, HLM): 4.78 µM | IC50 ([3]; IC50 against metabolism of diltiazem mediated by CYP3A4, substrate diltiazem 10 μM, 30 min): 5.12 ± 0.56 µM | IC50 ([3]; IC50 against metabolism of imatinib mediated by CYP3A4, substrate imatinib 5 μM, 30 min): 7.57 ± 0.2 µM | IC50 ([3]; IC50 against metabolism of simvastatin mediated by CYP3A4, substrate simvastatin 10 μM, 30 min): 4.5 ± 0.48 µM | activity at 30 min ([3]; human, human liver microsomes, pH 7.4, probe midazolam 5 μM, Residual activity (%) CYP3A4, HLM 0.5 mg/mL, midazolam 5 μM, 30 min): 30.1 ± 1.54% | IC50 [4]: 15.4 µM | activity at 30 min ([4]; human, human liver microsomes, pH 7.4, probe S-mephenytoin 50 μM, Residual activity (%) CYP2C19, HLM 0.5 mg/mL, S-mephenytoin 50 μM, 30 min): 39.2 ± 4.83% | IC50 at 30 min [5]: 4.5 to 25.3 µM
